The values that follow come from patent US12257247B2 (Monte Rosa Therapeutics AG, priority 2023, dated 2025).

The assay addresses T1, VAV1 (Homo sapiens, UniProt P15498+Q96SW2).
T1 construct: A heterozygous VAV1 C-terminal HiBiT knock-in pool was generated at Monte Rosa Therapeutics from a clonal Jurkat cell; endogenous in cells; host or cells: Jurkat clone stably expressing LgBiT, homozygous GSPT1-G575N; heterozygous VAV1-HiBiT knock-in pool
Kind of assay: VAV1 degradation activity, VAV1-HiBiT knock-in Jurkat luminescence assay (Example A, Table 1). The format is cell-based. The conditions noted are these: VAV1-HiBiT knock-in Jurkat cells; for Dmax: Jurkat. Put shortly: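 Luminescence was measured at 6 and 24 h after adding compound (10 μM stock) to VAV1-HiBiT knock-in Jurkat cells, which had been pre-incubated ~16 h at 37° C. in RPMI/10% FBS containing Endurazine. EC50 values came from control-normalised responses fitted to a 3-parameter logistic model with hillslope fixed at 1.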

Setting [1] is: luminescence read at 6 and 24 hours, read-out: VAV1 Dmax %.
The mark [2] stands for this setting: luminescence read at 6 and 24 hours, read-out: VAV1 Dmax %, class.
The mark [3] stands for this setting: luminescence read at 6 and 24 hours, read-out: VAV1 DC50.
The mark [4] stands for this setting: luminescence read at 6 and 24 hours, read-out: VAV1 DC50 (nM), class.
[5] abbreviates: luminescence read at 6 and 24 hours after compound addition, read-out: VAV1 Dmax %.
[6] abbreviates: luminescence read at 6 and 24 hours after compound addition, read-out: VAV1 Dmax %, class.
Setting [7] is: luminescence read at 6 and 24 hours after compound addition, read-out: VAV1 DC50.
Setting [8] is: luminescence read at 6 and 24 hours after compound addition, read-out: VAV1 DC50 (nM), class.

SMILES strings stand for the structures. Read-outs that look alike come from different tables or passages of the source.

For the compound `O=C1CCC(c2cccc(-c3ccc(N4C(=O)CC5CC54)cc3)c2Cl)C(=O)N1` (stereo not drawn) [Compound 478, 3-(2-chloro-4′-(3-oxo-2-azabicyclo[3.1.0]hexan-2-yl)-[1,1′-biphenyl]-3-yl)piperidine-2,6-dione], the Dmax runs as follows: under setting [1], 70.5%; under setting [2], 60 to 90%. The DC50 is, setting by setting: under setting [3], 291 nM; under setting [4], 100 to 1000 nM.
Taken in the same sequence, the figures for `Cn1ccc(COc2ncc(-c3cccc(C4CCC(=O)NC4=O)c3Cl)cn2)n1` (stereo not drawn) [Compound 479, 3-(2-chloro-3-(2-((1-methyl-1H-pyrazol-3-yl)methoxy)pyrimidin-5-yl)phenyl)piperidine-2,6-dione] were 31%, less than 60%, not below 10000 nM and more than 1000 nM.
Take `Cn1ccc(Cc2nn(C)c3cc(-c4cccc(C5CCC(=O)NC5=O)c4Cl)ccc23)n1` (stereo not drawn) [Compound 480, 3-(2-chloro-3-(1-methyl-3-((1-methyl-1H-pyrazol-3-yl)methyl)-1H-indazol-6-yl)phenyl)piperidine-2,6-dione]: the Dmax is 96.7% under setting [1] and more than 90% under setting [2]. Besides, the DC50 is 8.08 nM under setting [3] and not above 100 nM under setting [4].
For `O=C1CCC(c2cccc(-c3ccc(N4C(=O)C5CC4C5)cc3)c2Cl)C(=O)N1` (stereo not drawn) [Compound 481, 3-(2-chloro-4′-{3-oxo-2-azabicyclo[2.1.1]hexan-2-yl}-[1,1′-biphenyl]-3-yl)piperidine-2,6-dione], the Dmax reads like this: under setting [1], 46%; under setting [2], less than 60%. Moreover, the DC50 under setting [3] is not below 10000 nM and the DC50 under setting [4] was more than 1000 nM.
Turning to `O=C1CCC(c2cccc(-c3ccc4[nH]ccc4c3)c2Cl)C(=O)N1` (stereo not drawn) [Compound 482, 3-(2-chloro-3-(1H-indol-5-yl)phenyl)piperidine-2,6-dione], the Dmax under setting [1] was 91.7% and the Dmax under setting [2] is more than 90%. Also, the DC50 by setting is: under setting [3], 18.7 nM; under setting [4], not above 100 nM.
For `O=C1CCC(c2cccc(-c3ccc4cc[nH]c4c3)c2Cl)C(=O)N1` (stereo not drawn) [Compound 483, 3-(2-chloro-3-(1H-indol-6-yl)phenyl)piperidine-2,6-dione], the Dmax is 88.1% under setting [5] and 60 to 90% under setting [6]. The DC50 is 59.9 nM under setting [7] and not above 100 nM under setting [8].
Turning to `O=C1CCC(c2cccc(-c3ccc4cn[nH]c4c3)c2Cl)C(=O)N1` (stereo not drawn) [Compound 484, 3-(2-chloro-3-(1H-indazol-6-yl)phenyl)piperidine-2,6-dione], the Dmax is, setting by setting: under setting [5], 78.4%; under setting [6], 60 to 90%. Also, the DC50 reads like this: under setting [7], 220 nM; under setting [8], 100 to 1000 nM.
Consider `O=C1CCC(c2cccc(-c3ccc4[nH]ncc4c3)c2Cl)C(=O)N1` (stereo not drawn) [Compound 485, 3-[2-chloro-3-(1H-indazol-5-yl)phenyl]piperidine-2,6-dione], for which the Dmax is, setting by setting: under setting [5], 89.7%; under setting [6], 60 to 90%. Further, the DC50 under setting [7] is 41 nM and the 50% degradation concentration (DC50) under setting [8] is not above 100 nM.
In the case of `O=C1CCC(c2cccc(-c3ccc4c(c3)CCCN4)c2Cl)C(=O)N1` (stereo not drawn) [Compound 486, 3-(2-chloro-3-(1,2,3,4-tetrahydroquinolin-6-yl)phenyl)piperidine-2,6-dione], the Dmax is 96.2% under setting [5] and more than 90% under setting [6]. Besides, the DC50 is 6.51 nM under setting [7] and not above 100 nM under setting [8].
On to `O=C1CCC(c2cccc(-c3ccc4c(c3)OCCN4)c2Cl)C(=O)N1` (stereo not drawn) [Compound 487, 3-(2-chloro-3-(3,4-dihydro-2H-benzo[b][1,4]oxazin-7-yl)phenyl)piperidine-2,6-dione], for which the Dmax by setting is: under setting [5], 82.8%; under setting [6], 60 to 90%. Besides, the DC50 was 23.7 nM under setting [7] and not above 100 nM under setting [8].
In the same order, the values of `CN1CCc2cc(-c3cccc(C4CCC(=O)NC4=O)c3Cl)ccc21` (stereo not drawn) [Compound 488, 3-(2-chloro-3-(1-methylindolin-5-yl)phenyl)piperidine-2,6-dione] are 91%, more than 90%, 17.2 nM and not above 100 nM.
In the same order, the values of `Cn1ccc(CN2CCc3cc(-c4cccc(C5CCC(=O)NC5=O)c4Cl)ccc32)n1` (stereo not drawn) [Compound 489, 3-(2-chloro-3-(1-((1-methyl-1H-pyrazol-3-yl)methyl)indolin-5-yl)phenyl)piperidine-2,6-dione] are 97.8%, more than 90%, 2.84 nM and not above 100 nM.
In the same order, the values of `O=C1CCC(c2cccc(-c3ccc4c(c3)CCN4)c2Cl)C(=O)N1` (stereo not drawn) [Compound 490, 3-(2-chloro-3-(indolin-5-yl)phenyl)piperidine-2,6-dione] are 74.5%, 60 to 90%, 131 nM and 100 to 1000 nM.
Consider `O=C1CCC(c2cccc(-c3ccc4c(c3)CCN4)c2F)C(=O)N1` (stereo not drawn) [Compound 491, 3-(2-fluoro-3-(indolin-5-yl)phenyl)piperidine-2,6-dione], for which the Dmax runs as follows: under setting [5], 88.5%; under setting [6], 60 to 90%. Moreover, the DC50 by setting is: under setting [7], 15.7 nM; under setting [8], not above 100 nM.
`O=C1CCC(c2cccc(-c3ccc4c(c3)CCC(=O)N4)c2Cl)C(=O)N1` (stereo not drawn) [Compound 492, 3-(2-chloro-3-(2-oxo-1,2,3,4-tetrahydroquinolin-6-yl)phenyl)piperidine-2,6-dione]: the Dmax runs as follows: under setting [5], 94.3%; under setting [6], more than 90%. The DC50 under setting [7] was 10.7 nM and the DC50 under setting [8] was not above 100 nM.
Taken in the same sequence, the figures for `O=C1CCC(c2cccc(-c3ccc4c(c3)CC(=O)N4)c2Cl)C(=O)N1` (stereo not drawn) [Compound 493, 3-(2-chloro-3-(2-oxoindolin-5-yl)phenyl)piperidine-2,6-dione] were 75.7%, 60 to 90%, 502 nM and 100 to 1000 nM.
On to `O=C1CCC(c2cccc(-c3cnc4c(c3)OCCN4)c2Cl)C(=O)N1` (stereo not drawn) [Compound 494, 3-(2-chloro-3-(3,4-dihydro-2H-pyrido[3,2-b][1,4]oxazin-7-yl)phenyl)piperidine-2,6-dione], for which the Dmax reads like this: under setting [5], 61.2%; under setting [6], 60 to 90%. For the same compound, the DC50 is 929 nM under setting [7] and 100 to 1000 nM under setting [8].
Taken in the same sequence, the figures for `Cn1ccc(CN2C(=O)Cc3cc(-c4cccc(C5CCC(=O)NC5=O)c4Cl)ccc32)n1` (stereo not drawn) [Compound 496, 3-(2-chloro-3-(1-((1-methyl-1H-pyrazol-3-yl)methyl)-2-oxoindolin-5-yl)phenyl)piperidine-2,6-dione] were 95.6%, more than 90%, 12.7 nM and not above 100 nM.
`CC1(C)Cc2cc(-c3cccc(C4CCC(=O)NC4=O)c3Cl)ccc2N1` (stereo not drawn) [Compound 497, 3-(2-chloro-3-(2,2-dimethylindolin-5-yl)phenyl)piperidine-2,6-dione]: the Dmax is, setting by setting: under setting [5], 95.8%; under setting [6], more than 90%. In addition, the DC50 is, setting by setting: under setting [7], 18 nM; under setting [8], not above 100 nM.
In the same order, the values of `Cn1ccc(Cn2ncc3cc(-c4cccc(C5CCC(=O)NC5=O)c4Cl)ccc32)n1` (stereo not drawn) [Compound 498, 3-(2-chloro-3-(1-((1-methyl-1H-pyrazol-3-yl)methyl)-1H-indazol-5-yl)phenyl)piperidine-2,6-dione] are 98%, more than 90%, 11.8 nM and not above 100 nM.
Taken in the same sequence, the figures for `Cn1ccc(Cn2ccc3cc(-c4cccc(C5CCC(=O)NC5=O)c4Cl)ccc32)n1` (stereo not drawn) [Compound 499, 3-(2-chloro-3-(1-((1-methyl-1H-pyrazol-3-yl)methyl)-1H-indol-5-yl)phenyl)piperidine-2,6-dione] were 97.9%, more than 90%, 5.45 nM and not above 100 nM.
For `CC1Cc2cc(-c3cccc(C4CCC(=O)NC4=O)c3Cl)ccc2N1` (stereo not drawn) [Compound 500, 3-(2-chloro-3-(2-methylindolin-5-yl)phenyl)piperidine-2,6-dione], the Dmax was 98.5% under setting [5] and more than 90% under setting [6]. Moreover, the DC50 is, setting by setting: under setting [7], 7.51 nM; under setting [8], not above 100 nM.
As for `Cn1ccc(CN2C(=O)CCc3cc(-c4cccc(C5CCC(=O)NC5=O)c4Cl)ccc32)n1` (stereo not drawn) [Compound 501, 3-(2-chloro-3-(1-((1-methyl-1H-pyrazol-3-yl)methyl)-2-oxo-1,2,3,4-tetrahydroquinolin-6-yl)phenyl)piperidine-2,6-dione], the Dmax runs as follows: under setting [5], 97.7%; under setting [6], more than 90%. The DC50 by setting is: under setting [7], 8.19 nM; under setting [8], not above 100 nM.
As for `Cn1ccc(CN2C(=O)COc3cc(-c4cccc(C5CCC(=O)NC5=O)c4Cl)ccc32)n1` (stereo not drawn) [Compound 502, 3-(2-chloro-3-(4-((1-methyl-1H-pyrazol-3-yl)methyl)-3-oxo-3,4-dihydro-2H-benzo[b][1,4]oxazin-7-yl)phenyl)piperidine-2,6-dione], the Dmax runs as follows: under setting [5], 97.8%; under setting [6], more than 90%. The DC50 was 3.95 nM under setting [7] and not above 100 nM under setting [8].
